Results: patent US11028090B2 (Dong Wha Pharm. Co., Ltd., priority 2017, dated 2021)
Like-named read-outs stand apart in the source and are kept apart here.

How the values were obtained:
[1] = test system: acute myelogenous leukemia cells (MV-4-11 cells); test: Cytotoxicity to acute myelogenous leukemia cells (MV-4-11 cells), CCK-8; details: Homo sapiens, MV4-11, 72 h
[2] = target: BRD4 (BD1+BD2) bromodomain (Homo sapiens (Human), UniProt O60885); test: BRD4 binding inhibition (AlphaScreen, GST-BRD4 vs tetraacetylated histone H4 peptide)
Outline: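 AlphaScreen read after 30 min dark incubation at room temperature with glutathione acceptor/streptavidin donor beads (10 μg/ml each). The beads were added to compound plus 100 nM biotin-H4 (K5,8,12,16-acetyl) peptide and 100 nM GST-BRD4 BD1+BD2 in pH 7.4 HEPES/Tween/BSA/DTT buffer.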

[3] = read-out: MV-4-11 Cytotoxicity IC50
[4] = GST-BRD4 (BD1+BD2) vs biotinylated acetyl-histone H4 peptide, AlphaScreen, read-out: BRD4 IC50
[5] = read-out: IC50, cytotoxicity against acute myelogenous leukemia cells
[6] = GST-BRD4 (BD1+BD2) / biotinylated acetyl-histone H4 (Lys5,8,12,16) peptide, read-out: IC50, BRD4 binding inhibition

Row | Structure (SMILES) | IC50 [2, 4] [nM] | IC50 [2, 6] [nM] | IC50 [1, 3] [nM] | IC50 [1, 5] [nM]
1 | CCc1nnc2c(NCCCCNC(=O)OC(C)(C)C)nc3cc(OC)c(OC)cc3n12 [Example 594, [4-(1-ethyl-7,8-dimethoxy-[1,2,4]triazolo[4,3-a]quinoxaline-4-ylamino)-butyl]-carbamic acid-tert-butylester] | 76 | – | 880 | –
2 | Cc1nnc2c(NCCCCNC(=O)C(C)(C)C)nc3cc(OCCN4CCOCC4)ccc3n12 [Example 433, 2,2-dimethyl-N-{4-[1-methyl-7-(2-morpholine-4-yl-ethoxy)-[1,2,4]triazolo[4,3-a]quinoxaline-4-ylamino]-butyl}-propionamide] | 61 | – | 340 | –
3 | Cc1nnc2c(NCCCCNC(=O)CC(C)C)nc3cc(OCC4CCCCO4)ccc3n12 (stereo not shown) [Example 343, 3-methyl-N-{4-[1-methyl-7-(tetrahydro-pyran-2-yl-methoxy)-[1,2,4]triazolo[4,3-a]quinoxaline-4-ylamino]-butyl}-butyramide] | 36 | ≤ 50 | 120 | ≤ 200
4 | COc1cc2nc(NCCCCNC(=O)CC(C)C)c3nnc(C)n3c2cc1OCCN1CCOCC1 [Example 576, N-{4-[7-methoxy-1-methyl-8-(2-morpholine-4-yl-ethoxy)-[1,2,4]triazolo[4,3-a]quinoxaline-4-ylamino]-butyl}-3-methyl butyramide] | 52 | – | 86 | ≤ 200
5 | Cc1nnc2c(NCCCCNC(=O)CC(C)C)nc3ccc([N+](=O)[O-])cc3n12 [Example 550, 3-methyl-N-[4-(1-methyl-8-nitro-[1,2,4]triazolo[4,3-a]quinoxaline-4-ylamino)-butyl]-butyramide] | 21 | ≤ 50 | 157 | ≤ 200
6 | COc1cc2nc(NCCCCNC(=O)c3ccc(F)cc3)c3nnc(C)n3c2cc1OC [Example 98, N-[4-(7,8-dimethoxy-1-methyl-[1,2,4]triazolo[4,3-a]quinoxaline-4-ylamino)-butyl]-4-fluoro-benzamide] | 47 | ≤ 50 | 830 | –
7 | Cc1nnc2c(NCCCCNC(=O)OC(C)(C)C)nc3cc(-c4nc5ccccc5[nH]4)ccc3n12 [Example 218, {4-[7-(1H-benzoimidazole-2-yl)-1-methyl-[1,2,4]triazolo[4,3-a]quinoxaline-4-ylamino]-butyl}-carbamic acid-tert-butylester] | 25 | ≤ 50 | 320 | –
8 | CCCNc1ccc2c(c1)nc(NCCCCNC(=O)CC(C)C)c1nnc(C)n12 [Example 253, 3-methyl-N-[4-(1-methyl-7-propylamino-[1,2,4]triazolo[4,3-a]quinoxaline-4-ylamino)-butyl]-butyramide] | 50 | ≤ 50 | 235 | –
9 | COc1c(C)ccc2c1nc(NCCCCNC(=O)c1ccccc1)c1nnc(C)n12 [Example 138, N-[4-(6-methoxy-1,7-dimethyl-[1,2,4]triazolo[4,3-a]quinoxaline-4-ylamino)-butyl]-benzamide] | 51 | – | 860 | –
10 | COc1c(C)ccc2c1nc(NCCCCNC(=O)c1ccccc1Cl)c1nnc(C)n12 [Example 140, 2-chloro-N-[4-(6-methoxy-1,7-dimethyl-[1,2,4]triazolo[4,3-a]quinoxaline-4-ylamino)-butyl]-benzamide] | 52 | – | 680 | –
11 | Cc1nnc2c(NCCCCNC(=O)CC(C)C)nc3cc(OCc4ccc(C#N)cc4)ccc3n12 [Example 341, N-{4-[7-(4-cyano-benzyloxy)-1-methyl-[1,2,4]triazolo[4,3-a]quinoxaline-4-ylamino]-butyl}-3-methyl-butyramide] | 71 | – | 52 | ≤ 200
12 | COc1cc2nc(NCCCCNC(=O)CC(C)C)c3nnc(C)n3c2cc1NC(=O)Nc1ccccc1 [Example 568, N-{4-[7-methoxy-1-methyl-8-(3-phenyl-ureido)-[1,2,4]triazolo[4,3-a]quinoxaline-4-ylamino]-butyl}-3-methyl-butyramide] | 28 | ≤ 50 | 658 | –
13 | COCCOc1cc2nc(NCCCCNC(=O)c3ccccc3)c3nnc(C)n3c2cc1OCCOC [Example 170, N-{4-[7,8-bis-(2-methoxy-ethoxy)-1-methyl-[1,2,4]triazolo[4,3-a]quinoxaline-4-ylamino]-butyl}-benzamide] | 38 | ≤ 50 | 530 | –

These reach a lower IC50 [2, 4]. Values come first.

Row | IC50 [2, 4] [nM] | IC50 [2, 6] [nM] | Structure (SMILES) | IC50 [1, 3] [nM] | IC50 [1, 5] [nM]
14 | 18 | ≤ 50 | CCc1nnc2c(NCCCCNC(=O)OCC(C)C)nc3cc(OC)c(OC)cc3n12 [Example 598, [4-(1-ethyl-7,8-dimethoxy-[1,2,4]triazolo[4,3-a]quinoxaline-4-ylamino)-butyl]-carbamic acid isobutylester] | 290 | –
15 | 16 | ≤ 50 | COCCOc1ccc2c(c1)nc(NCCCCNC(=O)OC(C)C)c1nnc(C)n12 [Example 366, {4-[7-(2-methoxy-ethoxy)-1-methyl-[1,2,4]triazolo[4,3-a]quinoxaline-4-ylamino]-butyl}-carbamic acid isopropylester] | 110 | ≤ 200
16 | 15 | ≤ 50 | CCC(C)CC(=O)NCCCCNc1nc2cc(OC)c(OC)cc2n2c(C)nnc12 (stereo not shown) [Example 73, 3-methyl-pentanoic acid-[4-(7,8-dimethoxy-1-methyl-[1,2,4]triazolo[4,3-a]quinoxaline-4-ylamino)-butyl]-amide] | 10 | ≤ 200
17 | 14 | ≤ 50 | COCCOc1ccc2c(c1)nc(NCCCCNC(=O)C=C(C)C)c1nnc(C)n12 [Example 378, 3-methyl-butene-2-oic acid-{4-[7-(2-methoxy-ethoxy)-1-methyl-[1,2,4]triazolo[4,3-a]quinoxaline-4-ylamino]-butyl}-amide] | 290 | –
18 | 13 | ≤ 50 | COCCOc1ccc2c(c1)nc(NCCCCNC(=O)c1ccccc1)c1nnc(C)n12 [Example 408, N-{4-[7-(2-methoxy-ethoxy)-1-methyl-[1,2,4]triazolo[4,3-a]quinoxaline-4-ylamino]-butyl}-benzamide] | 620 | –
19 | 13 | ≤ 50 | Cc1nnc2c(NCCCCNC(=O)CC(C)C)nc3cc(-n4ccnc4)ccc3n12 [Example 492, N-[4-(7-imidazole-1-yl-1-methyl-[1,2,4]triazolo[4,3-a]quinoxaline-4-ylamino)-butyl]-3-methyl-butyramide] | 80 | ≤ 200
20 | 11 | ≤ 50 | Cc1nnc2c(NCCCCNC(=O)Cc3cccs3)nc3cc(N4CCOCC4)ccc3n12 [Example 507, N-[4-(1-methyl-7-morpholine-4-yl-[1,2,4]triazolo[4,3-a]quinoxaline-4-ylamino)-butyl]-2-thiophene-2-yl-acetamide] | 21 | ≤ 200
21 | 11 | ≤ 50 | Cc1nnc2c(NCCCCNC(=O)c3ccccc3Cl)nc3cc(OC(C)C)ccc3n12 [Example 454, 2-chloro-N-[4-(7-isopropoxy-1-methyl-[1,2,4]triazolo[4,3-a]quinoxaline-4-ylamino)-butyl]-benzamide] | 80 | ≤ 200
22 | 10 | ≤ 10 | Cc1nnc2c(NCCCCNC(=O)Cc3cccs3)nc3cc(-n4ccnc4)ccc3n12 [Example 496, N-[4-(7-imidazole-1-yl-1-methyl-[1,2,4]triazolo[4,3-a]quinoxaline-4-ylamino)-butyl]-2-thiophene-2-yl-acetamide] | 20 | ≤ 200
23 | 10 | ≤ 10 | COc1ccc2c(c1)nc(NCCCCNC(=O)[C@@H](NC(=O)OCC(C)C)C(C)C)c1nnc(C)n12 [Example 318, (S)-{1-[4-(7-methoxy-1-methyl-[1,2,4]triazolo[4,3-a]quinoxaline-4-ylamino)-butylcarbamoyl]-2-methyl-propyl}-carbamic acid isobutylester] | 32 | ≤ 200
24 | 9 | ≤ 10 | CCC(C)CC(=O)NCCCCNc1nc2cc(N3CCOCC3)ccc2n2c(C)nnc12 (stereo not shown) [Example 501, 3-methyl-pentanoic acid-[4-(1-methyl-7-morpholine-4-yl-[1,2,4]triazolo[4,3-a]quinoxaline-4-ylamino)-butyl]-amide] | 60 | ≤ 200
25 | 9 | ≤ 10 | COc1cc2nc(NCCCCNC(=O)Cc3cccs3)c3nnc(C)n3c2cc1C(F)(F)F [Example 480, N-[4-(7-methoxy-1-methyl-8-trifluoromethyl-[1,2,4]triazolo[4,3-a]quinoxaline-4-ylamino)-butyl]-2-thiophene-2-yl-acetamide] | 80 | ≤ 200
26 | 4 | ≤ 10 | COc1ccc2c(c1)nc(NCCCCNC(=O)[C@@H](NC(=O)OC(C)C)C(C)C)c1nnc(C)n12 [Example 320, (S)-{1-[4-(7-methoxy-1-methyl-[1,2,4]triazolo[4,3-a]quinoxaline-4-ylamino)-butylcarbamoyl]-2-methyl-propyl}-carbamic acid isopropylester] | 670 | –
27 | 1 | ≤ 10 | CCCOC(=O)N[C@H](C(=O)NCCCCNc1nc2cc(OCCOC)ccc2n2c(C)nnc12)C(C)C [Example 399, (S)-(1-{4-[7-(2-methoxy-ethoxy)-1-methyl-[1,2,4]triazolo[4,3-a]quinoxaline-4-ylamino]-butylcarbamoyl}-2-methyl-propyl)-carbamic acid propylester] | 570 | –
